Legend:
[1] = system: GST-Braf kinase domain and biotinylated E3 substrate adapter (VHL/EloB/EloC complex or CRBN318-425); assay: Dimerization assay (AlphaScreen/AlphaLisa), RAF/E3 dimerization; format: binding; settings: Table 17; relative value; compounds 4 fold serial dilutions from 20 μM
[2] = target: T1, CRAF (CRAF fusion protein with a fluorescent protein) in Calu-6 cells (Homo sapiens, UniProt P04049); assay: Degradation assay, fluorescent CRAF fusion protein levels in Calu-6 cells (IncuCyte S3); format: cell-based; settings: fluorescence/confluence
T1 construct: fluorescent protein (green); expressed in transfected cells; host or cells: Calu-6
T1 sequence (P04049 whole entry, the tested form may be a part): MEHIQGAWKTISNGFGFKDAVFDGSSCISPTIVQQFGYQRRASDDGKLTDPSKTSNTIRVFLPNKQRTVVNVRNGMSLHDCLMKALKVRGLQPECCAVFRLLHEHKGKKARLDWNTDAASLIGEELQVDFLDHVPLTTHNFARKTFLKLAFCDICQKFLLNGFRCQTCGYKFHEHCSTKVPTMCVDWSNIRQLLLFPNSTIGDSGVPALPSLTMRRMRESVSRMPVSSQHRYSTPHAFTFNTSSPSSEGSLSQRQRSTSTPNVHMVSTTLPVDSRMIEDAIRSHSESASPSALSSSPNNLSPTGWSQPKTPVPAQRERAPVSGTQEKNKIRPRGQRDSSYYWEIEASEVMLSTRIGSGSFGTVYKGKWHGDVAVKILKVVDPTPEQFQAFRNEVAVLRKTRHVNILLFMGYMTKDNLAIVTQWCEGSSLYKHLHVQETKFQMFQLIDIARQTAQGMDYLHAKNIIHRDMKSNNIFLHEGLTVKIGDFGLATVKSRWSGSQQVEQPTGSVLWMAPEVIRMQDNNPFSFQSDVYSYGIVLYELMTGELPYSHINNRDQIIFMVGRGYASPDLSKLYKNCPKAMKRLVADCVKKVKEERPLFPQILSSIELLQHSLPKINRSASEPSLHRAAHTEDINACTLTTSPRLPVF
Experimental: Calu-6 cells were stably transfected with a CRAF fusion protein with a fluorescent protein attached to the C-terminus of CRAF in order to monitor protein levels via fluorescence. Cells were seeded into a 96-well plate and allowed to adhere overnight. The next day cells are treated with compounds at the doses indicated in the table below and analyzed over time. Data was collected by monitoring Fluorescent CRAF protein levels an IncuCyte S3 Live Cell Analysis System (Essen BioScience). […] Calu6_CRAF fusion protein cells are imaged and analyzed using an Incucyte S3 live-cell analysis system (Essen Biosciences). Fluorescence signal is due to expression of the fluorescent protein covalently fused to the C-terminus of CRAF and degradation is assessed by measuring fluorescence/confluence (˜cell number) after treatment with compounds of the present disclosure. Phase contrast images are analyzed using Incucyte S3 software. Percent confluence is calculated using a phase contrast mask to quantify the area of the image occupied by the Calu6_CRAF fusion protein cells. Fluorescent images are analyzed using Incucyte S3 software. Green Corrected Units (GCU) is calculated using a fluorescence mask to quantify the area of the image occupied by green fluorescent signal and the intensity of the signal. […] As discussed above, degradation is measured as a function of fluorescence/confluence.

RAF/E3 Dimerization [1]	CRAF degradation in Calu6 cells over time ([2]; 3 μM, FIG. 4, 8, 9)	CRAF degradation in Calu6 cells over time ([2]; 2 μM, FIG. 10)	CRAF degradation in Calu6 cells over time ([2]; 1.5 μM, FIG. 3)	CRAF degradation in Calu6 cells over time ([2]; 12.5 μM, FIG. 7)	SMILES
+++ (50% > RAF/E3 Dimerization ≥ 25)	CRAF degradation	–	–	–	Cc1ccc(NC(=O)c2cccc(C(F)(F)F)c2)cc1-c1cnc(OCCOCc2cn(CCCCCC(=O)Nc3cccc4c3C(=O)N(C3CCC(=O)NC3=O)C4=O)nn2)c(N2CCOCC2)c1 (stereo not drawn) [Compound 2.012, N-(3-(6-(2-((1-(6-((2-(2,6-dioxopiperidin-3-yl)-1,3-dioxoisoindolin-4-yl)amino)-6-oxohexyl)-1H-1,2,3-triazol-4-yl)methoxy)ethoxy)-5-morpholinopyridin-3-yl)-4-methylphenyl)-3-(trifluoromethyl)benzamide]
+++ (50% > RAF/E3 Dimerization ≥ 25)	–	CRAF degradation	–	–	Cc1ncc(NC(=O)c2cccc(C(F)(F)F)c2)cc1-c1cnc(OCCOCCOCC(=O)NCCCCCCc2cccc3c2CN(C2CCC(=O)NC2=O)C3=O)c(N2CCOCC2)c1 (stereo not drawn) [Compound 2.015, N-(6′-(2-(2-(2-((6-(2-(2,6-dioxopiperidin-3-yl)-1-oxoisoindolin-4-yl)hexyl)amino)-2-oxoethoxy)ethoxy)ethoxy)-2-methyl-5′-morpholino-[3,3′-bipyridin]-5-yl)-3-(trifluoromethyl)benzamide]
+++++ (RAF/E3 Dimerization ≥75%)	CRAF degradation	–	–	–	Cc1ncc(NC(=O)c2cccc(C(F)(F)F)c2)cc1-c1cnc(OCCOCCOCCOCCOCCOCC(=O)N[C@@H](C(=O)N2C[C@H](O)C[C@H]2C(=O)N[C@@H](C)c2ccc(-c3scnc3C)cc2)C(C)(C)C)c(N2CCOCC2)c1 [Compound 2.001, (2S,4R)-1-((R)-2-(tert-butyl)-20-((2′-methyl-5-morpholino-5′-(3-(trifluoromethyl)-benzamido)-[3,3′-bipyridin]-6-yl)oxy)-4-oxo-6,9,12,15,18-pentaoxa-3-azaicosan-1-oyl)-4-hydroxy-N—((S)-1-(4-(4-methylthiazol-5-yl)phenyl)ethyl)pyrrolidine-2-carboxamide]
+++ (50% > RAF/E3 Dimerization ≥ 25)	–	–	CRAF degradation	–	Cc1ncc(NC(=O)c2cccc(C(F)(F)F)c2)cc1-c1cnc(O[C@H]2CCO[C@@H](COCc3cn(CCCCCC(=O)N[C@@H](C(=O)N4C[C@H](O)C[C@H]4C(=O)N[C@@H](C)c4ccc(-c5scnc5C)cc4)C(C)(C)C)nn3)C2)c(N2CCOCC2)c1 (relative stereo) [Compound 2.004, (2S,4R)-1-((R)-3,3-dimethyl-2-(6-(4-((((2R*,4S*)-4-((2′-methyl-5-morpholino-5′-(3-(trifluoromethyl)benzamido)-[3,3′-bipyridin]-6-yl)oxy)tetrahydro-2H-pyran-2-yl)methoxy)methyl)-1H-1,2,3-triazol-1-yl)hexanamido)butanoyl)-4-hydroxy-N—((S)-1-(4-(4-methylthiazol-5-yl)phenyl)ethyl)pyrrolidine-2-carboxamide]
+ (5% > RAF/E3 Dimerization)	CRAF degradation	–	–	–	Cc1ccc(NC(=O)c2cccc(C(F)(F)F)c2)cc1-c1cnc(OCCc2cn(CCCCCC(=O)Nc3cccc4c3C(=O)N(C3CCC(=O)NC3=O)C4=O)nn2)c(N2CCOCC2)c1 (stereo not drawn) [Compound 1.009, N-(3-(6-(2-(1-(6-((2-(2,6-dioxopiperidin-3-yl)-1,3-dioxoisoindolin-4-yl)amino)-6-oxohexyl)-1H-1,2,3-triazol-4-yl)ethoxy)-5-morpholinopyridin-3-yl)-4-methylphenyl)-3-(trifluoromethyl)benzamide]
+++++ (RAF/E3 Dimerization ≥75%)	–	–	–	CRAF degradation	Cc1ncc(NC(=O)c2cccc(C(F)(F)F)c2)cc1-c1cnc(OCCOCCOCCOCCOCC(=O)NCCCCCc2cccc3c2CN(C2CCC(=O)NC2=O)C3=O)c(N2CCOCC2)c1 (stereo not drawn) [Compound 2.014, N-(5-(2-(2,6-dioxopiperidin-3-yl)-1-oxoisoindolin-4-yl)pentyl)-14-((2′-methyl-5-morpholino-5′-(3-(trifluoromethyl)benzamido)-[3,3′-bipyridin]-6-yl)oxy)-3,6,9,12-tetraoxatetradecan-1-amide]

— patent publication US10787443B2, “RAF-degrading conjugate compounds” (ZAMBONI CHEM SOLUTIONS INC., priority 2017, dated 2020)
